Literature values, collected in patent EP3072529B1, “COMPOSITION COMPRISING VEMURAFENIB AND HPMC-AS” (ratiopharm GmbH, priority 2015, dated 2016).

Details: reported

solubility in aqueous and physiological solvents: practically insoluble
Compound: CCCS(=O)(=O)Nc1ccc(F)c(C(=O)c2c[nH]c3ncc(-c4ccc(Cl)cc4)cc23)c1F [Vemurafenib base, propane-1-sulfonic acid {3-[5-(4-chlorophenyl)-1H-pyrrolo[2,3-b]pyridine-3-carbonyl]-2,4-difluorophenyl}-amide]
